Patent publication US20240309389A1, “Chimeric FCeRI a-Chain Gene, Chimeric FCeRI a-Chain Protein, Cells, Analysis Kit and Analysis Method” (TEIKYO HEISEI UNIVERSITY, priority 2021, published 2024)

Experiments:
Assay type in all cases: cell-based, rat
HuRa-40 cells = assay: IgE crosslinking-induced luciferase expression, inhibitor evaluation in HuRa-40 cells
Protocol: (§1) HuRa-40 cells and RS-ATL8 cells were prepared.
(§2) After washing the sensitized cells with PBS three times, […] was added and stimulated at 37° C. for 3 hours.
(§3) After the stimulation time had elapsed, Bright-Glo (Promega) substrate solution was added to each well in an amount of 50 μL/well, and reacted for 5 minutes at room temperature while shielding from light. After that, the luminescence intensity was measured with a microplate reader (GloMax, Promega).
(§4) A study similar to that described above was performed with cyclosporin A instead of omalizumab. Specifically, RS-ATL8 cells or HuRa-40 cells were added with cyclosporin A at a final concentration of 0 to 1 μg/mL, and, 30 minutes later, 50 ng/ml of human IgE was added to sensitize them overnight. After washing with PBS three times, the cells were stimulated with an anti-human IgE antibody for 3 hours, and Bright-Glo was added to measure luminescence.

RS-ATL8 cells = assay: IgE crosslinking-induced luciferase expression, inhibitor evaluation in RS-ATL8 cells
Protocol: as §1, §2, §3, §4

RBL-NL4 cells = assay: Luciferase expression on stimulation in RBL-NL4 cells; conditions: unsensitized, 250 μM, 37° C., 3 hours
Protocol: Luciferase expression of when stimulated with ionomycin, anti-human IgE antibody, or specific antigen is confirmed for each of cultures obtained by culturing the seven clones obtained in (2) above and RBL-NL4 cells. Specifically, the confirmation was carried out as follows.
On the day before the test for confirming luciferase expression when the stimulus was applied, the following operations were performed. […] The medium was placed in each well of a white 96-well plate made of plastic with a transparent bottom (product number: 165306, Thremo). Cells of each clone were then seeded at 5×10^4 cells/50 μL per well, and allowed to stand overnight in an incubator for sensitization. […]
After applying the stimulation, 50 μL/well of a substrate solution (One-Glo Luciferase Assay System, Promega) was added to each well and allowed to react for 5 minutes, and then the luminescence intensity was measured using a luminometer (GloMax, Promega).
In FIG. 7, black dots indicate the measured luciferase luminescence intensity (unit: CPS) (right axis: LUMINESCENCE (CPS)). […] The relative luminescence intensity is the relative luminescence intensity when the luminescence intensity of each clone when unstimulated is set to 1, and is shown on a log scale.

[1] = drug added 30 min before 50 ng/ml human IgE overnight sensitization, anti-human IgE stimulation 3 h, read from FIG. 17
[2] = omalizumab 100 μg/mL, fraction of the 0 μg/mL value

## Omalizumab
HuRa-40 cells
  change of luminescence intensity, concentration increased from 0.1 μg/mL to 1 μg/mL: significant decrease in luminescence intensity
HuRa-40 cells; [1]
  50% inhibitory concentration (IC50): less than 1 μg/mL
HuRa-40 cells; [2]
  luminescence intensity at 100 μg/mL compared to 0 μg/mL: less than 1/30
RS-ATL8 cells
  change of luminescence intensity, concentration increased from 0.1 μg/mL to 1 μg/mL: decreased slightly
  change of luminescence intensity, concentration increased from 1 μg/mL to 10 μg/mL: further decreased
RS-ATL8 cells; [1]
  50% inhibitory concentration (IC50): greater than 1 μg/mL
RS-ATL8 cells; [2]
  luminescence intensity at 100 μg/mL compared to 0 μg/mL: about ¼

## C[C@H](CCC(=O)O)C[C@H](C)C[C@H](C)C(=O)/C=C(\O)[C@H](C)C[C@H](C)C/C=C/[C@@H](C)[C@@H](O)[C@@H](C)[C@@H](O)C[C@@H]1CC[C@@](C)([C@H]2CC[C@@](C)([C@@H](C)O)O2)O1 [ionomycin]
RBL-NL4 cells
  luciferase expression level compared to anti-human IgE antibody stimulation (no IgE and aIgE): greatly increased
